These compounds were tested against NLRP3 (Homo sapiens, UniProt Q96P20) (assay: THP-1 cells pyroptosis assay). Settings: LPS 1.0 μg/ml, nigericin 5 μM, resazurin readout, 10 μM top dose (Example 2: top dose of 30 μM).
NLRP3, sequence (Q96P20 whole entry): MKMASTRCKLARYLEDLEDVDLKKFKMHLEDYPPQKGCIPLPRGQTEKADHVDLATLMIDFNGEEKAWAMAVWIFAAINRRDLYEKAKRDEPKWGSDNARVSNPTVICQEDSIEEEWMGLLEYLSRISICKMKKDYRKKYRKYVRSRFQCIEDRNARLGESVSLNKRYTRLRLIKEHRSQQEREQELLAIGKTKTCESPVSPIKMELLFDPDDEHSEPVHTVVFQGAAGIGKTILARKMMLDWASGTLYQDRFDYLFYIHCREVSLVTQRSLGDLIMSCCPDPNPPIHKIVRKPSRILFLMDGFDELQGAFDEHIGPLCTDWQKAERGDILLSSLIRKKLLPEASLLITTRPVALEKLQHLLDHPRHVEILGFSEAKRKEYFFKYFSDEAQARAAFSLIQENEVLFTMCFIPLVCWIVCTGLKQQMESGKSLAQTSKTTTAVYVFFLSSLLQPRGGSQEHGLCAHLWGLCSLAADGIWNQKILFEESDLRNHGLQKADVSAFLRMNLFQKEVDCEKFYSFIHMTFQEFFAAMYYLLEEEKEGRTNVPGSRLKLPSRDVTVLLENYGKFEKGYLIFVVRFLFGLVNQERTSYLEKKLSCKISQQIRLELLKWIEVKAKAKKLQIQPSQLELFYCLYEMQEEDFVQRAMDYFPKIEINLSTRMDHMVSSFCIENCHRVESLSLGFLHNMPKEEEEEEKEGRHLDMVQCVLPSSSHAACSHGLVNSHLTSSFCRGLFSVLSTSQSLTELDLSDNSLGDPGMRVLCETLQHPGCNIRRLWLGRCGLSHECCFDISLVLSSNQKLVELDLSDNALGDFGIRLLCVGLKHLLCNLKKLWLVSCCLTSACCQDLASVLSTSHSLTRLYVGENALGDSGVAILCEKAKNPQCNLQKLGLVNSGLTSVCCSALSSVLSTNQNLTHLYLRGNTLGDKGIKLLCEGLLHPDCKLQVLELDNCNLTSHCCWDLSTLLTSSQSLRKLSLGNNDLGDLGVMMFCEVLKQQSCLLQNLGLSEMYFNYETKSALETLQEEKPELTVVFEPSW
Assay type: cell-based
Design: Seed THP-1 cells (25,000 cells/well) containing 1.0 μg/ml LPS; host or cells: THP-1
Procedure, shortened: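 Pyroptosis induced by 5 μM nigericin (1 h) in LPS-primed (1 μg/ml) THP-1 cells, 25,000/well in serum-free RPMI, after 3 h compound pre-treatment (8 points, 10 μM top unless stated). Surviving cells measured with 100 μM resazurin, Ex 560/Em 590; IC50 via variable-slope 4-parameter regression.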
`O=S(=O)(c1nnc(Nc2c3c(cc4c2CCC4)CCC3)[nH]1)N1CC2(CCNC2)C1` [Example 265, 5-((2,6-diazaspiro[3.4]octan-2-yl)sulfonyl)-N-(1,2,3,5,6,7-hexahydro-s-indacen-4-yl)-4H-1,2,4-triazol-3-amine] was tested, and the IC50 was no more than 5 µM.
`O=S(=O)(c1nnc(Nc2c3c(cc4c2CCC4)CCC3)[nH]1)N1CCC2(CCNC2)CC1` [Example 266, 5-((2,8-diazaspiro[4.5]decan-8-yl)sulfonyl)-N-(1,2,3,5,6,7-hexahydro-s-indacen-4-yl)-4H-1,2,4-triazol-3-amine] was tested, and the IC50 was no more than 5 µM.
With `O=S(=O)(c1nnc(Nc2c3c(cc4c2CCC4)CCC3)[nH]1)N1CCC2(CCCN2CC(F)(F)F)CC1` [Example 267, N-(1,2,3,5,6,7-hexahydro-s-indacen-4-yl)-5-((1-(2,2,2-trifluoroethyl)-1,8-diazaspiro[4.5]decan-8-yl)sulfonyl)-4H-1,2,4-triazol-3-amine] the IC50 was no more than 10 µM.
Work on `CN1C[C@H]2[C@@H]1CCN2S(=O)(=O)c1nnc(Nc2c3c(cc4c2CCC4)CCC3)[nH]1` [Example 269, N-(1,2,3,5,6,7-hexahydro-s-indacen-4-yl)-5-(((1S,5S)-6-methyl-2,6-diazabicyclo[3.2.0]heptan-2-yl)sulfonyl)-4H-1,2,4-triazol-3-amine] yielded an IC50 of no more than 10 µM.
`CC(C)(O)CNS(=O)(=O)c1nnc(Nc2c3c(cc4c2CCC4)CCC3)[nH]1` [Example 272, 5-((1,2,3,5,6,7-hexahydro-s-indacen-4-yl)amino)-N-(2-hydroxy-2-methylpropyl)-4H-1,2,4-triazole-3-sulfonamide] was tested, and the IC50 was no more than 10 µM.
`CN1CCCN(S(=O)(=O)c2nnc(Nc3c4c(cc5c3CCC5)CCC4)[nH]2)CC1` [Example 273, N-(1,2,3,5,6,7-hexahydro-s-indacen-4-yl)-5-((4-methyl-1,4-diazepan-1-yl)sulfonyl)-4H-1,2,4-triazol-3-amine] was tested, and the IC50 was no more than 10 µM.
`CN1CC2(CCN(S(=O)(=O)c3nnc(Nc4c5c(cc6c4CCC6)CCC5)[nH]3)CC2)C1` [Example 280, N-(1,2,3,5,6,7-hexahydro-s-indacen-4-yl)-5-((2-methyl-2,7-diazaspiro[3.5]nonan-7-yl)sulfonyl)-4H-1,2,4-triazol-3-amine] showed an IC50 of no more than 5 µM.
`O=S(=O)(c1nnc(Nc2c3c(cc4c2CCC4)CCC3)[nH]1)N1CCn2cncc2C1` [Example 281, 5-((5,6-dihydroimidazo[1,5-a]pyrazin-7 (8H)-yl)sulfonyl)-N-(1,2,3,5,6,7-hexahydro-s-indacen-4-yl)-4H-1,2,4-triazol-3-amine] showed an IC50 of no more than 10 µM.
For `COC(C)(C)C1CCN(S(=O)(=O)c2nnc(Nc3c4c(cc5c3CCC5)CCC4)[nH]2)C1` (centres unmarked) [Example 282, N-(1,2,3,5,6,7-hexahydro-s-indacen-4-yl)-5-((3-(2-methoxypropan-2-yl)pyrrolidin-1-yl)sulfonyl)-4H-1,2,4-triazol-3-amine], the IC50 was no more than 5 µM.
`COCC1CCN(S(=O)(=O)c2nnc(Nc3c4c(cc5c3CCC5)CCC4)[nH]2)C1` (centres unmarked) [Example 283, N-(1,2,3,5,6,7-hexahydro-s-indacen-4-yl)-5-((3-(methoxymethyl)pyrrolidin-1-yl)sulfonyl)-4H-1,2,4-triazol-3-amine] showed an IC50 of no more than 5 µM.
With `O=S(=O)(c1nnc(Nc2c3c(cc4c2CCC4)CCC3)[nH]1)N1CC[C@H](CO)C1` [Example 284, (S)-(1-((5-((1,2,3,5,6,7-hexahydro-s-indacen-4-yl)amino)-4H-1,2,4-triazol-3-yl)sulfonyl)pyrrolidin-3-yl)methanol] the IC50 was no more than 10 µM.
Work on `O=S(=O)(c1nnc(Nc2c3c(cc4c2CCC4)CCC3)[nH]1)N1CC(c2ccccn2)C1` [Example 285, N-(1,2,3,5,6,7-hexahydro-s-indacen-4-yl)-5-((3-(pyridin-2-yl)azetidin-1-yl)sulfonyl)-4H-1,2,4-triazol-3-amine] yielded an IC50 of no more than 5 µM.
Compound `O=S(=O)(c1nnc(Nc2c3c(cc4c2CCC4)CCC3)[nH]1)N1CCC2(CC1)CNC2` [Example 287, 5-((2,7-diazaspiro[35]nonan-7-yl)sulfonyl)-N-(1,2,3,5,6,7-hexahydro-s-indacen-4-yl)-4H-1,2,4-triazol-3-amine] has an IC50 of no more than 10 µM.
Compound `O=S(=O)(c1nnc(Nc2c3c(cc4c2CCC4)CCC3)[nH]1)N1CCC(F)(F)CC1` [Example 297, 5-((4,4-difluoropiperidin-1-yl)sulfonyl)-N-(1,2,3,5,6,7-hexahydro-s-indacen-4-yl)-4H-1,2,4-triazol-3-amine] has an IC50 of no more than 10 µM.
In the case of `O=S1(=O)CCN(S(=O)(=O)c2nnc(Nc3c4c(cc5c3CCC5)CCC4)[nH]2)CC1` [Example 298, 4-((5-((1,2,3,5,6,7-hexahydro-s-indacen-4-yl)amino)-4H-1,2,4-triazol-3-yl)sulfonyl)thiomorpholine 1,1-dioxide], the IC50 is reported as no more than 10 µM.
`NC(=O)c1ccccc1S(=O)(=O)c1n[nH]c(Nc2c3c(cc4c2CCC4)CCC3)n1` [Example 311, 2-((5-((1,2,3,5,6,7-hexahydro-s-indacen-4-yl)amino)-1H-1,2,4-triazol-3-yl)sulfonyl)benzamide] gave an IC50 of no more than 5 µM.
With `COc1cc(-c2c(C)cc3c(c2Nc2nnc(S(C)(=O)=O)[nH]2)CCC3)ccn1` [Example 312, N-(5-(2-methoxypyridin-4-yl)-6-methyl-2,3-dihydro-1H-inden-4-yl)-5-(methylsulfonyl)-4H-1,2,4-triazol-3-amine] the IC50 was no more than 5 µM.
`O=S(=O)(c1nnc(Nc2c3c(cc4c2CCC4)CCC3)[nH]1)N1CCCC2(CCOC2)C1` (centres unmarked) [Example 313, 5-(2-oxa-7-azaspiro[4.5]decan-7-ylsulfonyl)-N-(1,2,3,5,6,7-hexahydro-s-indacen-4-yl)-4H-1,2,4-triazol-3-amine] showed an IC50 of no more than 5 µM.
`O=S(=O)(c1nnc(Nc2c3c(cc4c2CCC4)CCC3)[nH]1)N1CCC2(CCOC2)C1` (centres unmarked) [Example 314, 5-(2-oxa-7-azaspiro[4.4]nonan-7-ylsulfonyl)-N-(1,2,3,5,6,7-hexahydro-s-indacen-4-yl)-4H-1,2,4-triazol-3-amine] gave an IC50 of no more than 5 µM.
`CC(C)(O)C1CCCN(S(=O)(=O)c2nnc(Nc3c4c(cc5c3CCC5)CCC4)[nH]2)C1` (centres unmarked) [Example 315, 2-(1-((5-((1,2,3,5,6,7-hexahydro-s-indacen-4-yl)amino)-4H-1,2,4-triazol-3-yl)sulfonyl)piperidin-3-yl)propan-2-ol] showed an IC50 of no more than 5 µM.
Compound `Cc1cc2c(c(Nc3nnc(S(=O)(=O)N4CCC(N(C)C)CC4)[nH]3)c1-c1ccnc(OC3CCN(C)CC3)c1)CCC2` [Example 316, N,N-dimethyl-1-((5-((6-methyl-5-(2-((1-methylpiperidin-4-yl)oxy)pyridin-4-yl)-2,3-dihydro-1H-inden-4-yl)amino)-4H-1,2,4-triazol-3-yl)sulfonyl)piperidin-4-amine] has an IC50 of no more than 5 µM.
`CN1CCC(Oc2cc(-c3ccc4c(c3Nc3nnc(S(=O)(=O)N5CCC(N(C)C)CC5)[nH]3)CCC4)ccn2)CC1` [Example 321, N,N-dimethyl-1-((5-((5-(2-((1-methylpiperidin-4-yl)oxy)pyridin-4-yl)-2,3-dihydro-1H-inden-4-yl)amino)-4H-1,2,4-triazol-3-yl)sulfonyl)piperidin-4-amine] gave an IC50 of no more than 5 µM.
Work on `CS(=O)(=O)c1nnc(Nc2c3c(c(C#N)c4c2CCC4)CCC3)[nH]1` [Example 322, 8-((5-(methylsulfonyl)-4H-1,2,4-triazol-3-yl)amino)-1,2,3,5,6,7-hexahydro-s-indacene-4-carbonitrile] yielded an IC50 of no more than 5 µM.
For `N#Cc1c2c(c(Nc3nnc(S(=O)(=O)c4ccccc4)[nH]3)c3c1CCC3)CCC2` [Example 323, 8-((5-(phenylsulfonyl)-4H-1,2,4-triazol-3-yl)amino)-1,2,3,5,6,7-hexahydro-5-indacene-4-carbonitrile], the IC50 was no more than 5 µM.
Compound `COc1cc(-c2ccc3c(c2Nc2nnc(S(=O)(=O)c4ccc(C(C)(C)O)cc4)[nH]2)CCC3)ccn1` [Example 324, 2-(4-((5-((5-(2-methoxypyridin-4-yl)-2,3-dihydro-1H-inden-4-yl)amino)-4H-1,2,4-triazol-3-yl)sulfonyl)phenyl)propan-2-ol] has an IC50 of no more than 0.5 µM.
For `NS(=O)(=O)c1cccc(S(=O)(=O)c2nnc(Nc3c4c(cc5c3CCC5)CCC4)[nH]2)c1` [Example 326, 3-((5-((1,2,3,5,6,7-hexahydro-s-indacen-4-yl)amino)-4H-1,2,4-triazol-3-yl)sulfonyl)benzenesulfonamide], the IC50 was no more than 5 µM.
Compound `NC(=O)c1ccc(S(=O)(=O)c2nnc(Nc3c4c(cc5c3CCC5)CCC4)[nH]2)cc1` [Example 327, 4-((5-((1,2,3,5,6,7-hexahydro-s-indacen-4-yl)amino)-4H-1,2,4-triazol-3-yl)sulfonyl)benzamide] has an IC50 of no more than 5 µM.
`O=C1CC2(CN1)CN(S(=O)(=O)c1nnc(Nc3c4c(cc5c3CCC5)CCC4)[nH]1)C2` [Example 332, 2-((5-((1,2,3,5,6,7-hexahydro-s-indacen-4-yl)amino)-4H-1,2,4-triazol-3-yl)sulfonyl)-2,6-diazaspiro[3.4]octan-7-one] showed an IC50 of no more than 10 µM.
`O=S(=O)(c1nnc(Nc2c3c(cc4c2CCC4)CCC3)[nH]1)N1CCC2(COC2)C1` [Example 333, 5-(2-oxa-6-azaspiro[3.4]octan-6-ylsulfonyl)-N-(1,2,3,5,6,7-hexahydro-s-indacen-4-yl)-4H-1,2,4-triazol-3-amine] showed an IC50 of no more than 5 µM.
Work on `O=S(=O)(c1ccn(CCO)n1)c1nnc(Nc2c3c(cc4c2CCC4)CCC3)[nH]1` [Example 334, 2-(3-((5-((1,2,3,5,6,7-hexahydro-s-indacen-4-yl)amino)-4H-1,2,4-triazol-3-yl)sulfonyl)-1H-pyrazol-1-yl)ethanol] yielded an IC50 of no more than 1 µM.
`O=S(=O)(c1cnn(CCO)c1)c1nnc(Nc2c3c(cc4c2CCC4)CCC3)[nH]1` [Example 335, 2-(4-((5-((1,2,3,5,6,7-hexahydro-s-indacen-4-yl)amino)-4H-1,2,4-triazol-3-yl)sulfonyl)-1H-pyrazol-1-yl)ethanol] gave an IC50 of no more than 5 µM.
With `CC(C)(O)Cn1cc(S(=O)(=O)c2nnc(Nc3c4c(cc5c3CCC5)CCC4)[nH]2)cn1` [Example 336, 1-(4-((5-((1,2,3,5,6,7-hexahydro-s-indacen-4-yl)amino)-4H-1,2,4-triazol-3-yl)sulfonyl)-1H-pyrazol-1-yl)-2-methylpropan-2-ol] the IC50 was no more than 5 µM.

Reference: US20210261512A1, “NOVEL COMPOUNDS” (INFLAZOME LIMITED, priority 2018, published 2021)
